# From US20150018294A1, “MODULATORS OF TOUSLED KINASE IN CELLULAR PROCESSES” (priority 2012, published 2015)
# Entries after “also recorded” stand apart in the source; their conditions may differ.
# What was measured:
# TLK1B = target: T1, TLK1B (Homo sapiens, UniProt Q9UKI8); test: TLK1B kinase assay (auto kinase assay with γ 32P ATP; recombinant TLK1B with Rad9 peptide); format: biochemical; details: for activity on TLK (TLK kinase assays): inactive defined at concentrations <10 μM
# T1 sequence (Q9UKI8 1-549 isoform Q9UKI8-3): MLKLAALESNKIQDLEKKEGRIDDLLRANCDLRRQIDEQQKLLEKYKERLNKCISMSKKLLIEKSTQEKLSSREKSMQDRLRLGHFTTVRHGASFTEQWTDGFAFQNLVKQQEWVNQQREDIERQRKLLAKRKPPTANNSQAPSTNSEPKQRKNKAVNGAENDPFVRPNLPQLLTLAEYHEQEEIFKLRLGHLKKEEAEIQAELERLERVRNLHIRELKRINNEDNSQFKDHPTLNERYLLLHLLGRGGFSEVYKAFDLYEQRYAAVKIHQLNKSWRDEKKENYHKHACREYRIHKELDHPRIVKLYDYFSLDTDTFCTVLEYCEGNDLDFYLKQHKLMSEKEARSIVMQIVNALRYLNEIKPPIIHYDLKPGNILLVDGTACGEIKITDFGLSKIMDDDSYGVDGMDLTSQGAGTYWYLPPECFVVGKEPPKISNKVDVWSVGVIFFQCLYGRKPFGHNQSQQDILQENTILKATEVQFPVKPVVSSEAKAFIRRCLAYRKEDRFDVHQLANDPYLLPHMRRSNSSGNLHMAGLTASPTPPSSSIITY
# Method: To identify inhibitors of TLK, we developed a high throughput screen with recombinant TLK1B, a small Rad9 peptide and the ADP Hunter reagent (DiscoveRx). Using this assay, the Innovative North Louisiana Experimental Therapeutics (INLET) screening core (affiliated with the FWCC) screened the Prestwick library, two other proprietary libraries, and a subset of the ChemDiv library (˜6000 compounds).
# Following the initial fluorescent screen at a compound concentration of ˜5 μM, potential hits were tested with a more sensitive auto kinase assay with γ 32P ATP. Inhibition of auto phosphorylation was confirmed by TCA precipitable counts (FIG. 1A). The inhibitors are highly specific for TLKs. […] We have additional evidence for direct binding of these compounds to the recombinant protein (to be published elsewhere).
# TlK1 immune complexes isolated from […] protein extracts using abtiserum made in our lab and Protein A beads. Adsorbed proteins were washed twice in kinase assay buffer (KAB) (50 mM HEPES pH 7.2, 10 mM MgCl2, 5 mM MnCl2, 2.5 mM EGTA, 1 mM DTT, 1 mM NaF, 0.2 mM sodium o vanadate, […] leupeptin, 2 g/ml aprotinin) and incubated for 15-30 min at 30° C. in KAB supplemented with 10 µM ATP, 10 Ci [−32P]ATP (>5000 Ci/mmol, GE). The proteins were separated on 10% SDS-PAGE gels, transferred to nitrocellulose before exposure on a Phosphorlmager; and then processed for WB with TLK1 antiserum. For kinase assays with recombinant TLK1B protein, the reactions were similar, and carried out with 10 ng TLK1B and 50 ng Rad9 peptide substrate. These were carried out to confirm the initial “hits” from the screen and further to obtain accurate ID50 values for the various inhibitors.
# D2 receptor = D2 receptor (Homo sapiens, UniProt P14416); details: cited from earlier work
# D2 receptor, sequence (P14416 whole entry): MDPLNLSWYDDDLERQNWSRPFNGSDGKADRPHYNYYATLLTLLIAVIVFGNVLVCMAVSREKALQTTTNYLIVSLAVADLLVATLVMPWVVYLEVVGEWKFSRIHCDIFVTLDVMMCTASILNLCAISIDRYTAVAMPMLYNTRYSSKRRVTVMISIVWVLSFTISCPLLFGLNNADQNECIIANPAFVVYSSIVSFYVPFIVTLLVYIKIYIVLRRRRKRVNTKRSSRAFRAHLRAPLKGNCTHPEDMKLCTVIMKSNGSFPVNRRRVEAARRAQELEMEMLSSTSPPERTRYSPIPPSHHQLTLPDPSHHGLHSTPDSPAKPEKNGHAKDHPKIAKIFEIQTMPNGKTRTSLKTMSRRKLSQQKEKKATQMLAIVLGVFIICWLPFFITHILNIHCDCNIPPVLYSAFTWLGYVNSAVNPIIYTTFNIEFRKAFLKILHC
# [1] = tested on: Rad9 S328 phosphorylation in DU145 cells; test: Rad9 S328 phosphorylation and checkpoint markers in DU145 cells after H2O2; format: cell-based, human
# Method: The inhibitors worked as expected on the pattern of phosphorylation of Rad9 […]. After treatment of DU145 cells with H2O2 for 10 min to generate breaks, there is a corresponding wave of phosphorylation and dephosphorylation of […] after completion of repair (FIG. 5) that matches the pattern of activity of TLK1/1B TLKs are the only known kinases that phosphorylate Rad9 […] 4. Generation of DSBs causes transient inhibition of TLK1 and simultaneous synthesis of TLK1B, which then results in hyper phosphorylation of […] upon restoration of kinase activity [FIG. 5A; 5]. Once H2O2 is degraded and most DNA breaks are repaired, the phosphorylation returns to baseline. The inhibitors, PPH (LS125) in particular, blocked the activation of TLK and consequent phosphorylation of Rad9 ([…]) (5C). […] FIG. 5). A key role of TLKs is then to participate in restoration of cell cycle upon completion of repair. Interfering with this process has dire consequences for cell viability; more likely for cancer cells that are genetically more unstable and already have defects in DNA repair functions, if not just for their reliance on these kinases.
# cell cycle = test: Cell cycle and apoptosis, with or without doxo; format: cell-based; details: inhibitor alone, 15 μM
# Text: A matching experimental set was processed by WB for evidence of cleaved PARP, and possible effects on ClnD1 accumulation, which occurs in late G1 and throughout S phases. […] The
# [2] = tested on: stalled replication forks; test: Restart of stalled replication forks after release from hydroxyurea; format: cell-based; details: after release from hydroxyurea (HU)
# DNA PK = DNA PK (Homo sapiens, UniProt P78527); details: cited from earlier work
# [3] = tested on: kinase panel (KinomeScan); test: KinomeScan kinase panel (DiscoverRx); format: binding; details: significantly inhibited = >60% at 10 μM
# panel of cell lines = test: Doubling in a larger panel of cell lines; format: cell-based; details: inhibitor alone
# Text: inhibitors had generally similar potency in additive killing with doxo in both DU145 and PC3 (FIG. 6). The RMT potentiation is not limited to these two CaP cell lines, but is also true for MDA MB231 BCA cells (FIG. 6). […] The TLK inhibitors by themselves had little effect on MDA231 viability and doubling (Sup. FIG. 3). […] This is consistent with their proposed mechanism as inhibitors of DSB repair.
# PC 3 (human CaP cells) [4] = test: IHC analysis of excised PC 3 tumors; parameters: species or system SCID/bg mice; details: mouse, in vivo
# Text: Some features are immediately noticeable even upon H&E staining that could explain the tumor growth patterns. […] We interpret this as being the result of accumulation of DNA damage, including DSBs, which are not promptly repaired, even as they may be expected to occur spontaneously in many cells in the harsh environment of tumor growth. This has in fact been reported before and was attributed to localized hypoxia 24. […] The staining was not negative, as one may think, since inspection at higher magnification confirmed the expected pattern of exclusively nuclear staining and lower intensity in nucleoli. […] This is consistent with the γH2AX pattern, showing a large number of cells harboring repair foci, and thus likely arrested in replication (or progressing slowly through S phase). To further establish this, we looked at presence of RPA foci, which is indicative of stalled forks25. As expected from the large number of proliferating cells (PCNA positive) in control tumors, RPA1 Staining was very strong, and particularly in focal areas. RPA1 staining in tumors from doxo treated mice was interesting. […] In tumors from mice treated with doxo+THD, staining for RPA was very weak and consistent to that obtained for PCNA. […] However, we did stain for P Rad9 (S328) to confirm that the effects were mediated via TLK inhibition, in what we propose is part of a checkpoint deactivation mechanism following repair of spontaneous DNA damage. Indeed, numerous cells stained lightly for P Rad9 in untreated tumor cells in fact, they are perhaps a larger proportion than those staining for γH2AX that presumably represent cells with unrepaired DSBs.
# MDA 231-Luc = MDA 231-Luc xenograft model; format: in vivo; details: female SCID/bg mice, treatment groups as in PC 3 study
# Text: We used the breast cancer model cell line MDA 231-Luc, for more precise quantitation of tumor growth (photon emission is linear with the tumor cell number). Female SCID/bg mice (N=8 per group) received 1×10^6 cells and when the tumors reached ˜500 mm3 (˜104 photons/sec) they were assigned to four treatment groups, as in the study above (Sup. FIG. 4).
# PC 3 (human CaP cells) [5] = details: THD 0.25 mg daily oral gavage; doxo 1 mg/kg intraperitoneal days 54, 68, 95
# Method: PC 3 model. A study was undertaken to investigate the in vivo efficacy of THD compared to doxo and to determine any sensitization conferred to the tumor cells by treatment with a combination of the two drugs. Eighty male SCID/bg mice received 1×106 PC 3 (human CaP cells) cells subcutaneous into their flanks. At day 49 post s inoculation, we began weekly tumor measurements by caliper [volume=(L×W2)[…])]. […] At day 54, daily oral gavages of THD (0.25 mg in water) were given, and intraperitoneal injections of doxo (1 mg/kg; see arrows in FIG. 7) were at days 54, 68, and 95 (last day before euthanasia). […] In any case, the tumors were excised at the end of the experiment (before the control group tumors reached the preset end point of 1500 mm3) and processed for IHC analysis. The mice were dosed on last day before euthanasia with doxo to induce bona fide DSBs.
# GST TLK1B = target: T2, GST TLK1B (Homo sapiens, UniProt Q9UKI8); test: Binding to GST TLK1B affixed to Immobilon filter; details: color will not wash out
# T2 sequence (Q9UKI8 1-549 isoform Q9UKI8-3): T1 sequence (Q9UKI8 1-549 isoform Q9UKI8-3)
# Text: To determine how structurally related antipsychotic drugs might differ from each other and produce different biological effects, we analyzed optimized drug structures by quantum mechanics (QM) methods. Drugs of interest were built with MarvinSketch 5.3.2 (ChemAxon) for initial optimization of the 3D structure. For the panels shown here (Sup. FIG. 1), orbitals from the highest occupied molecular orbital (HOMO) and the lowest unoccupied molecular orbital (LUMO) have been depicted. […] The planar heterocyclic ring structure of staurosporine and its out of plane aminated glucose moiety are reminiscent of the structure of the phenothiazines. Bulky substituents on the main phenothiazine ring, such as fluorine groups, may only be tolerated in a certain orientation relative to the alkyl side chain, depending upon the reactivity of the side chain. Moreover, the fit at the binding site will be determined by whether active groups in the drugs (rings vs. side chains) serve as donors or acceptors in non bond interactions (e.g., it bonding and van der Waals interactions). While QM characterization of the drugs is not definitive, certain trends emerged from this analysis. In Sup. […] In fact, methylene blue, which stains nucleic acids but not most proteins, remains so tightly bound to GST TLK1B that after its affixation to an Immobilon filter the color bound to the protein will not wash out.
smiles,measurement,setting,value
"OCCN1CCN(CCCN2c3ccccc3Sc3ccc(C(F)(F)F)cc32)CC1 [FF, fluphenazine]",activity on TLK (TLK kinase assays),TLK1B,inactive for TLK
same,D2 receptor antagonism,D2 receptor,more potent D2 receptor antagonist than either TFP (active) or THD
"CN1CCN(CCCN2c3ccccc3Sc3ccc(Cl)cc32)CC1 [PCP, prochlorperazine]",activity on TLK (TLK kinase assays),TLK1B,inactive
"CN(C)CCCN1c2ccccc2Sc2ccccc21 [PMZ, promazine]",activity on TLK (TLK kinase assays),TLK1B,identified as TLK inhibitors
same,D2 receptor antagonism,D2 receptor,does not have much activity as a D2 antagonist
"OCCN1CCN(CCCN2c3ccccc3Sc3ccc(Cl)cc32)CC1 [PPH, perphenazine]",activity on TLK (TLK kinase assays),TLK1B,identified as TLK inhibitors
same,Chk1 activation (P Chk1 S345),[1]; H2O2,persistent activation of Chk1
same,cleavage of cdc25A,[1]; H2O2,elicited much faster
same,phosphorylation of Rad17,[1]; H2O2,prolonged phosphorylation of Rad17
same,activation of TLK and phosphorylation of Rad9 (S328),[1]; H2O2 for 10 min,blocked the activation of TLK and consequent phosphorylation of Rad9 (S328)
"CCSc1ccc2c(c1)N(CCCN1CCN(C)CC1)c1ccccc1S2 [TEZ, thiethylperazine]",activity on TLK (TLK kinase assays),TLK1B,identified as TLK inhibitors
"CN1CCN(CCCN2c3ccccc3Sc3ccc(C(F)(F)F)cc32)CC1 [TFP, trifluoperazine]",activity on TLK (TLK kinase assays),TLK1B,active; also recorded: identified as TLK inhibitors
same,inhibition of TLKs,TLK1B; sub toxic concentrations 10-20 μM,completely inhibit TLKs
same,(apoptotic) sub G1 cells,cell cycle,very modest increase
same,cleaved PARP,cell cycle,very modest evidence of cleaved PARP
same,effect on the cell cycle,cell cycle,little effect on the cell cycle
same,restart of stalled replication forks and linked phosphorylation of Rad9 (S328),[2],greatly extends this process
same,DNA PK inhibition,DNA PK; TFP 10-20 μM,not inhibited
same,"reported inhibition of DNA PK in vitro, concentration",DNA PK; in vitro,0.1 to 0.2 mM
"CSc1ccc2c(c1)N(CCC1CCCCN1C)c1ccccc1S2 (stereo not drawn) [THD, Thioridazine]",inhibition of other kinases in the panel,[3],no other kinase in the panel was significantly inhibited
same,activity on TLK (TLK kinase assays),TLK1B,active; also recorded: identified as TLK inhibitors
same,cell doubling / growth,panel of cell lines,not found very many cancer cell lines that were sensitive to THD
same,P Rad9 (S328) staining,PC 3 (human CaP cells) [4],severe suppression of P Rad9
same,PCNA positive cells,PC 3 (human CaP cells) [4],significantly fewer PCNA positive cells
same,cellular density of the tumor (H&E staining),PC 3 (human CaP cells) [4],clearly reduced the tumor density
same,γH2AX positive cells,PC 3 (human CaP cells) [4],a large proportion of positive staining cells
same,tumor growth (photon emission),MDA 231-Luc,effective at controlling tumor increase
"COc1cccc2c1C(=O)c1c(O)c3c(c(O)c1C2=O)C[C@@](O)(C(=O)CO)C[C@@H]3O[C@H]1C[C@H](N)[C@H](O)[C@H](C)O1 [doxo, doxorubicin]",tumor growth,PC 3 (human CaP cells) [5],definite trend was seen for doxo reducing tumor growth
same,P Rad9 (S328) staining,PC 3 (human CaP cells) [4],much stronger staining for P Rad9
same,RPA staining,PC 3 (human CaP cells) [4],overall staining was weaker for most areas of the section
same,cellular density of the tumor (H&E staining),PC 3 (human CaP cells) [4],only slightly decreased the cellular density of the tumor
same,γH2AX positive cells,PC 3 (human CaP cells) [4],a large proportion
same,tumor growth (photon emission),MDA 231-Luc,insufficient to stop growth of tumors
CN(C)c1ccc2nc3ccc(=[N+](C)C)cc-3sc2c1 [methylene blue],activity on TLK (TLK kinase assays),TLK1B,highly inhibitory
same,binding to GST TLK1B,GST TLK1B,tightly bound
c1ccc2c(c1)Nc1ccccc1S2 [phenothiazine],activity on TLK (TLK kinase assays),TLK1B,highly inhibitory
